Experimental data as given in PMC10321319 (Nature, 2022).
Converted amounts (≈) assume the structure as drawn. Positions of bridges follow the written chain, without caps; N, C: chain ends. Non-standard residues stand in square brackets, D forms with d. Residues, ends and D or L forms follow the SMILES beside them. *: point of attachment. Decanoyl = CCCCCCCCCC(=O)*; Nonanoyl = CCCCCCCCC(=O)*; Heptanoyl = CCCCCCC(=O)*; Dab = NCC[C@H](N)C(=O)O

Experiments:
[1] = system: A. baumannii 0301 (mcr-1); test: MIC, microbial susceptibility assay; format: cell-based, Acinetobacter baumannii; conditions: A. baumannii 0301 upon introduction of mcr-1
[2] = system: A. baumannii SM1536 (pMQ124xlab1-mcr-1); test: MIC, microbial susceptibility assay; format: cell-based, Acinetobacter baumannii; conditions: A. baumannii SM1536 upon introduction of mcr-1
A. baumannii 0296 = conditions: XDR A. baumannii 0296, mcr-1 −; ref CDC & FDA Antibiotic Resistant Isolate Bank; cited from earlier work
A. baumannii 0301 = conditions: XDR A. baumannii 0301, mcr-1 −; ref CDC & FDA Antibiotic Resistant Isolate Bank; cited from earlier work
A. baumannii 0282 = conditions: XDR A. baumannii 0282, mcr-1 −; ref CDC & FDA Antibiotic Resistant Isolate Bank; cited from earlier work
A. baumannii 0287 = conditions: XDR A. baumannii 0287, mcr-1 −; ref CDC & FDA Antibiotic Resistant Isolate Bank; cited from earlier work
A. baumannii 0286 = conditions: XDR A. baumannii 0286, mcr-1 −; ref CDC & FDA Antibiotic Resistant Isolate Bank; cited from earlier work
A. baumannii 0295 = conditions: XDR A. baumannii 0295, mcr-1 −; ref CDC & FDA Antibiotic Resistant Isolate Bank; cited from earlier work

Compound	Fold increase in MIC [1]	Fold increase in MIC [2]	MIC (A. baumannii 0296)	MIC (A. baumannii 0301)	MIC (A. baumannii 0282)	MIC (A. baumannii 0287)	MIC (A. baumannii 0286)	MIC (A. baumannii 0295)
CCCCCCCCC(=O)N[C@@H](CCN)C(=O)N[C@H](C(=O)N[C@H](CO)C(=O)N[C@H]1CCNC(=O)[C@H](CC(C)C)NC(=O)[C@H](CCN)NC(=O)[C@H](CCN)NC(=O)[C@H]([C@@H](C)CC)NC(=O)[C@@H](CC(C)C)NC(=O)[C@H](CCN)NC1=O)[C@@H](C)O [L3] (Nonanoyl-[Dab]T[dS][Dab][Dab][dL]I[Dab][Dab]L; lactam 4-C; N-terminus assumed)	2	4						
CCCCCCC(=O)N[C@@H](CCN)C(=O)N[C@H](C(=O)N[C@H](CO)C(=O)N[C@H]1CCNC(=O)[C@H](CC(C)C)NC(=O)[C@H](CCN)NC(=O)[C@H](CCN)NC(=O)[C@H]([C@@H](C)CC)NC(=O)[C@@H](CC(C)C)NC(=O)[C@H](CCN)NC1=O)[C@@H](C)O [L1] (Heptanoyl-[Dab]T[dS][Dab][Dab][dL]I[Dab][Dab]L; lactam 4-C; N-terminus assumed)	2	8						
CCCCCCCCCC(=O)N[C@@H](CCN)C(=O)N[C@H](C(=O)N[C@H](CO)C(=O)N[C@H]1CCNC(=O)[C@H](CC(C)C)NC(=O)[C@H](CCN)NC(=O)[C@H](CCN)NC(=O)[C@H]([C@@H](C)CC)NC(=O)[C@@H](CC(C)C)NC(=O)[C@H](CCN)NC1=O)[C@@H](C)O [L4] (Decanoyl-[Dab]T[dS][Dab][Dab][dL]I[Dab][Dab]L; lactam 4-C; N-terminus assumed)	1	8						
C[C@@H](O)[C@H]1C(=O)N2C(C(=O)O)=C(S[C@@H]3CN[C@H](C(=O)N(C)C)C3)[C@H](C)[C@H]12 [Meropenem]			>8 mg/L	>8 mg/L	>8 mg/L	>8 mg/L	>8 mg/L	>8 mg/L
CO/N=C(\C(=O)N[C@@H]1C(=O)N2C(C(=O)O)=C(CSc3nc(=O)c(=O)[nH]n3C)CS[C@H]12)c1csc(N)n1 [Ceftriaxone]			>32 mg/L	>32 mg/L	>32 mg/L	>32 mg/L	>32 mg/L	>32 mg/L
C[C@@H](O)[C@H]1C(=O)N2C(C(=O)O)=C(S[C@@H]3CN[C@H](CNS(N)(=O)=O)C3)[C@H](C)[C@H]12 [Doripenem]			>8 mg/L	>8 mg/L	>8 mg/L	>8 mg/L	>8 mg/L	>8 mg/L
CN(C)[C@@H]1C(O)=C(C(N)=O)C(=O)[C@@]2(O)C(O)=C3C(=O)c4c(O)cccc4[C@@](C)(O)[C@H]3C[C@@H]12 [Tetracycline]			32 mg/L (≈ 72 µM)	>32 mg/L	>32 mg/L	>32 mg/L	>32 mg/L	>32 mg/L
CO/N=C(\C(=O)N[C@@H]1C(=O)N2C(C(=O)[O-])=C(C[N+]3(C)CCCC3)CS[C@H]12)c1csc(N)n1 [Cefepime]			>32 mg/L	>32 mg/L	>32 mg/L	32 mg/L (≈ 66.6 µM)	32 mg/L (≈ 66.6 µM)	>32 mg/L
COc1cc(Cc2cnc(N)nc2N)cc(OC)c1OC [Trimethoprim]			>8 mg/L	>8 mg/L	>8 mg/L	>8 mg/L	>8 mg/L	>8 mg/L
CC(C)(O/N=C(\C(=O)N[C@@H]1C(=O)N2C(C(=O)[O-])=C(C[n+]3ccccc3)CS[C@H]12)c1csc(N)n1)C(=O)O [Ceftazidime]			>128 mg/L	128 mg/L (≈ 234 µM)	>128 mg/L	128 mg/L (≈ 234 µM)	128 mg/L (≈ 234 µM)	>128 mg/L
NC[C@H]1O[C@H](O[C@H]2[C@H](O)[C@@H](O[C@H]3O[C@H](CO)[C@@H](O)[C@H](N)[C@H]3O)[C@H](N)C[C@@H]2N)[C@H](N)C[C@@H]1O [Tobramycin]			>16 mg/L	>16 mg/L	>16 mg/L	>16 mg/L	>16 mg/L	
C[C@H]1COc2c(N3CCN(C)CC3)c(F)cc3c(=O)c(C(=O)O)cn1c23 [Levofloxacin]			>8 mg/L	>8 mg/L	8 mg/L (≈ 22.1 µM)	8 mg/L (≈ 22.1 µM)	8 mg/L (≈ 22.1 µM)	>8 mg/L
CC1(C)S[C@@H]2[C@H](NC(=O)[C@H](N)c3ccccc3)C(=O)N2[C@H]1C(=O)O [Ampicillin]			>32 mg/L	>32 mg/L	>32 mg/L	>32 mg/L	32 mg/L (≈ 91.6 µM)	>32 mg/L
CO/N=C(\C(=O)N[C@@H]1C(=O)N2C(C(=O)O)=C(COC(C)=O)CS[C@H]12)c1csc(N)n1 [Cefotaxime]			>64 mg/L	>64 mg/L	>64 mg/L	>64 mg/L	>64 mg/L	>64 mg/L
O=C(O)c1cn(C2CC2)c2cc(N3CCNCC3)c(F)cc2c1=O [Ciprofloxacin]			>8 mg/L	>8 mg/L	>8 mg/L	>8 mg/L	>8 mg/L	>8 mg/L
CN(C)c1ccc(O)c2c1C[C@H]1C[C@H]3[C@H](N(C)C)C(O)=C(C(N)=O)C(=O)[C@@]3(O)C(O)=C1C2=O [Minocycline]			<=4 μg/ml	16 mg/L (≈ 35 µM)	8 mg/L (≈ 17.5 µM)	<=4 μg/ml	8 mg/L (≈ 17.5 µM)	16 mg/L (≈ 35 µM)
NCC[C@H](O)C(=O)N[C@@H]1C[C@H](N)[C@@H](O[C@H]2O[C@H](CN)[C@@H](O)[C@H](O)[C@H]2O)[C@H](O)[C@H]1O[C@H]1O[C@H](CO)[C@@H](O)[C@H](N)[C@H]1O [Amikacin]			>64 mg/L	64 mg/L (≈ 109 µM)	>64 mg/L	32 mg/L (≈ 54.6 µM)	>64 mg/L	4 mg/L (≈ 6.83 µM)
CN(C)c1cc(NC(=O)CNC(C)(C)C)c(O)c2c1C[C@H]1C[C@H]3[C@H](N(C)C)C(O)=C(C(N)=O)C(=O)[C@@]3(O)C(O)=C1C2=O [Tigecycline]				4 mg/L (≈ 6.83 µM)				4 mg/L (≈ 6.83 µM)
C[C@@H](O)[C@H]1C(=O)N2C(C(=O)O)=C(SCCN=CN)C[C@H]12 [Imipenem]			64 mg/L (≈ 214 µM)	>64 mg/L	64 mg/L (≈ 214 µM)	64 mg/L (≈ 214 µM)	>64 mg/L	>64 mg/L
CNC(C)C1CCC(N)C(OC2C(N)CC(N)C(OC3OCC(C)(O)C(NC)C3O)C2O)O1 (stereo not shown) [Gentamicin]			>16 mg/L	8 mg/L (≈ 16.8 µM)	>16 mg/L	4 mg/L (≈ 8.38 µM)	>16 mg/L	4 mg/L (≈ 8.38 µM)
CCN1CCN(C(=O)N[C@@H](C(=O)N[C@@H]2C(=O)N3[C@@H]2SC(C)(C)[C@@H]3C(=O)O)c2ccccc2)C(=O)C1=O [Piperacillin]			>128 mg/L	>128 mg/L	>128 mg/L	>128 mg/L	>128 mg/L	>128 mg/L
